Measured values from patent publication US11999715B2, “ASK1 inhibiting agents” (BIOGEN MA INC., priority 2018, dated 2024).

Experiments:
[1] = target: T1, ASK1/MAP3K5 (Homo sapiens, UniProt Q99683); assay: ASK1/MAP3K5 kinase assay by Reaction Biology Corp. (headed ASK1 TR-FRET Assay); assay type: biochemical; settings: 20 μM myelin basic protein, 10 μM ATP
T1 sequence (Q99683 1-1374): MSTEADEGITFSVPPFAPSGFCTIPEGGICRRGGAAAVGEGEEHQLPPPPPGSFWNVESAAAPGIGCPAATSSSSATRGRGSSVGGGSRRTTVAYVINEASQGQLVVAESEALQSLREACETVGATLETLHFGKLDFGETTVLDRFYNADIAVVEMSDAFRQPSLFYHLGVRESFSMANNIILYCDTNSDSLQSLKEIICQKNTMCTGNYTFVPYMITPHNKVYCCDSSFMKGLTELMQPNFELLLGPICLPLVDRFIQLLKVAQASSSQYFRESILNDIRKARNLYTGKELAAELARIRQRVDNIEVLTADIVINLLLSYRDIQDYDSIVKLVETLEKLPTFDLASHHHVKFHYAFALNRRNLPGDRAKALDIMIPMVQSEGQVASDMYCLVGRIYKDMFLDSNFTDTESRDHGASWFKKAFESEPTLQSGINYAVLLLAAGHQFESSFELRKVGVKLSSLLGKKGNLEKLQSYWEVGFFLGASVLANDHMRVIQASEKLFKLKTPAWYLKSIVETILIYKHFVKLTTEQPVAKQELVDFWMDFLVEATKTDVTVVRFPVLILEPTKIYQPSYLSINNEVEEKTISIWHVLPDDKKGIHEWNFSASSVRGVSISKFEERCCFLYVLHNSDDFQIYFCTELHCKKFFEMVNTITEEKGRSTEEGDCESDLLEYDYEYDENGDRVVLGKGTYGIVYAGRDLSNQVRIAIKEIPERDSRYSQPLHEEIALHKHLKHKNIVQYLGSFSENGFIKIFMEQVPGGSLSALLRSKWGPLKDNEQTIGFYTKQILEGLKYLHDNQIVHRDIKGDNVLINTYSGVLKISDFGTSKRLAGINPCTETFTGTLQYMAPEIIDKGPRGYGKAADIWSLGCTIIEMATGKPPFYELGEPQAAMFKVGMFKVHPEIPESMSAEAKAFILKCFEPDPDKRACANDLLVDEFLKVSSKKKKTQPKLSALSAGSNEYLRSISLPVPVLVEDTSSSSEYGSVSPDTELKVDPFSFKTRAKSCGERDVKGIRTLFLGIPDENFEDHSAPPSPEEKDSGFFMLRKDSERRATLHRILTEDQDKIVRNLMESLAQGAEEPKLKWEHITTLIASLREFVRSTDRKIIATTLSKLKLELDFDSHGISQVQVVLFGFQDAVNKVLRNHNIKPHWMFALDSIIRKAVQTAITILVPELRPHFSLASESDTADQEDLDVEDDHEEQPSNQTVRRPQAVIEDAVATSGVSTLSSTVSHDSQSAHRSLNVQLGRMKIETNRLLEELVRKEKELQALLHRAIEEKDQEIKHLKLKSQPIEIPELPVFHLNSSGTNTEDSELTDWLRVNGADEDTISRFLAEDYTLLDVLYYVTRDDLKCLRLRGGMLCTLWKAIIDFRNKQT
Method: Example 111: Brief Description of ASK1 TR-FRET Assay The protein kinase inhibitory activity of the compounds described herein were tested using the ASK1/MAP3K5 assay by Reaction Biology Corp. (Malvern, PA). The assay procedure follows (and is also available on the Reaction Biology Corp. website). Base Reaction Buffer: 20 mM Hepes (pH 7.5), 10 mM MgCl2, 1 mM EGTA, 0.02% Brij35, 0.02 mg/mL BSA, 0.1 mM Na3VO4, 2 mM DTT, 1% DMSO; Substrate: 20 μM of myelin basic protein (MBP) and 10 μM ATP; Protein kinase: ASK1/MAP3K5. Reaction Procedure: • 1. Prepare indicated substrate in freshly prepared Base Reaction Buffer. • 2. Deliver any required cofactors to the substrate solution. • 3. Deliver indicated kinase into the substrate solution and gently mix. • 4. Deliver compounds in DMSO into the kinase reaction mixture by Acoustic; technology (Echo550; nanoliter range), incubate for 20 minutes at room temperature. • 5. Deliver ^33P-ATP (specific activity 10 μCi/μL) into the reaction mixture to initiate the reaction. • 6. Incubate kinase reaction for 2 hours at room temperature. • 7. Reactions are spotted onto P81 ion exchange paper. • 8. Detect kinase activity by filter-binding method.

[2] = target: T2, ASK1 T838 auto phosphorylation (Homo sapiens, UniProt Q99683); assay: ASK1 (AUTO PHOS T838) assay, MSD format, in HEK-293T cells transfected with ASK1-V5; assay type: cell-based; settings: ASK1 T838 auto phosphorylation in HEK-293T cells, 1 hr compound incubation; class symbols
T2 sequence (Q99683 1-1374): T1 sequence (Q99683 1-1374)
Method: Example 112: Brief Description of ASK1(AUTO PHOS T838) Assay ASK1 T838 auto phosphorylation was measured in HEK-293T cells using MSD assay format. HEK 293T cells were seeded in 15 cm plates at a density of 18 million cells and 20 mL DMEM with 10% FBS, Pen/Strep media. The plates were incubated at 37° C. overnight. Media on plates was changed to OPTI-MEM, serum free media and cells were transfected with 9 μg of ASK1-V5 tagged full length plasmid using Lipofectamine 2000 (Invitrogen) and the plates were incubated at 37° C. overnight. Cells were trypsinized, counted on Nexcellometer and plated into 96 well tissue culture plates with 100,000 cells/well and 200 μL media. Cells were incubated for 4 hr at 37° C. then ASK1 compounds were added using a HP 300e. Compounds were tested at 20 μM with 3 fold, 10 point dilution points then incubated for 1 hr at 37° C. A lysis buffer (Cell Signaling) was prepared with protease and phosphatase inhibitor and maintained at 4° C. until use. Media from cells was discarded and 120 μL of cold lysis buffer was added to the cells, the plate was shaken 4° C. for 1 hr. Lysate was mixed using Apricot liquid handler; aspirating up and down 16 times at high speed using 50 μL volume. […] Plates were then incubated on a plate shaker overnight at 4° C. Plates were washed 3× with MSD wash buffer and 50 μL of rabbit anti-pASK1 T838 antibody was added to the wells and incubated for 2 hr at room temperature on a plate shaker. Plates were then washed and 50 μL of goat anti-rabbit sulfa-tag (1:500 dilution) was added to wells, and incubated for 1 hr at room temperature on a plate shaker. […] Plates were immediately read on a MSD Instrument Reader where chemoluminescence signal was measured. Data was analyzed using Graph Pad or Genedata, the data was normalized and plotted, % activity versus log of compound concentration. The IC50 values were obtained from a 4 parameter fit. The compounds described herein were tested for in the above cell-based assay.

| Compound | IC50 ([1]; class given in words) [nM] | IC50 [2] [nM] | IC50 ([1]; class symbols) [nM] |
| --- | --- | --- | --- |
| COc1nn(C)cc1C(=O)Nc1cccc(-c2nncn2C2(C)COC2)n1 [Example 49, 3-Methoxy-1-methyl-N-(6-(4-(3-methyloxetan-3-yl)-4H-1,2,4-triazol-3-yl)pyridin-2-yl)-1H-pyrazole-4-carboxamide] | ≥ 10000 | > 10000 | – |
| CCn1cc(C(=O)Nc2cccc(-c3nncn3[C@@H](C)C(F)(F)F)n2)c(OC)n1 [Example 15, (S)-1-Ethyl-3-methoxy-N-(6-(4-(1,1,1-trifluoropropan-2-yl)-4H-1,2,4-triazol-3-yl)pyridin-2-yl)-1H-pyrazole-4-carboxamide] | – | ≤ 1000 | ≤ 100 |
| COCCn1cc(C(=O)Nc2cccc(-c3nncn3[C@@H](C)C(F)(F)F)n2)c(OC)n1 [Example 52, (S)-3-Methoxy-1-(2-methoxyethyl)-N-(6-(4-(1,1,1-trifluoropropan-2-yl)-4H-1,2,4-triazol-3-yl)pyridin-2-yl)-1H-pyrazole-4-carboxamide] | – | ≤ 1000 | ≤ 100 |
| COCc1nn(C)cc1C(=O)Nc1cccc(-c2nncn2[C@@H](C)C(F)(F)F)n1 [Example 14] | – | ≤ 1000 | 100 to 1000 |
| COc1nn(C)cc1C(=O)Nc1cccc(-c2nncn2[C@@H]2CCCNC2)n1 [Example 39, (R)-3-Methoxy-1-methyl-N-(6-(4-(piperidin-3-yl)-4H-1,2,4-triazol-3-yl)pyridin-2-yl)-1H-pyrazole-4-carboxamide] | – | 1000 to 10000 | 1000 to 10000 |
| COc1nn(C)cc1C(=O)Nc1cccc(-c2nncn2C2(C(F)(F)F)CC2)n1 [Example 25, 3-Methoxy-1-methyl-N-(6-(4-(1-(trifluoromethyl)cyclopropyl)-4H-1,2,4-triazol-3-yl)pyridin-2-yl)-1H-pyrazole-4-carboxamide] | – | ≤ 1000 | ≤ 100 |
| COc1nn(C)cc1C(=O)Nc1cccc(-c2nncn2C2CC(F)(F)C2)n1 [Example 19, N-(6-(4-(3,3-Difluorocyclobutyl)-4H-1,2,4-triazol-3-yl)pyridin-2-yl)-3-methoxy-1-methyl-1H-pyrazole-4-carboxamide] | – | ≤ 1000 | ≤ 100 |
| COc1nn(C)cc1C(=O)Nc1cccc(-c2nncn2[C@H](C)CO)n1 (single isomer, unassigned) [Example 36] | – | ≤ 1000 | ≤ 100 |
| CCn1cc(C(=O)Nc2cccc(-c3nncn3C(C)C(F)(F)F)n2)c(OC)n1 (centres unmarked) [Example 13, 1-Ethyl-3-methoxy-N-(6-(4-(1,1,1-trifluoropropan-2-yl)-4H-1,2,4-triazol-3-yl)pyridin-2-yl)-1H-pyrazole-4-carboxamide] | – | ≤ 1000 | ≤ 100 |
| COc1nn(C)cc1C(=O)Nc1cccc(-c2nncn2[C@H]2CCC2(F)F)n1 (single isomer, unassigned) [Example 31] | – | ≤ 1000 | ≤ 100 |
| COc1nn(C)cc1C(=O)Nc1cccc(-c2nncn2C(C)CO)n1 (racemic) [Example 35, rac-N-(6-(4-(1-Hydroxypropan-2-yl)-4H-1,2,4-triazol-3-yl)pyridin-2-yl)-3-methoxy-1-methyl-1H-pyrazole-4-carboxamide] | – | 1000 to 10000 | ≤ 100 |

Now from value to molecule:

| IC50 ([1]; class given in words) [nM] | IC50 [2] [nM] | IC50 ([1]; class symbols) [nM] | Compound |
| --- | --- | --- | --- |
| – | ≤ 1000 | ≤ 100 | COc1cncc(-n2cc(C(=O)Nc3cccc(-c4nncn4C(C)C)n3)c(C(F)F)n2)c1 [Example 78, 3-(Difluoromethyl)-N-(6-(4-isopropyl-4H-1,2,4-triazol-3-yl)pyridin-2-yl)-1-(5-methoxypyridin-3-yl)-1H-pyrazole-4-carboxamide] |
| – | ≤ 1000 | ≤ 100 | COCCn1cc(C(=O)Nc2cccc(-c3cncn3C(C)C)n2)c(OC)n1 [Example 92, N-(6-(1-Isopropyl-1H-imidazol-5-yl)pyridin-2-yl)-3-methoxy-1-(2-methoxyethyl)-1H-pyrazole-4-carboxamide] |
| – | ≤ 1000 | 100 to 1000 | CC(C)n1cncc1-c1cccc(NC(=O)c2cn(-c3cncc(C4CC4)c3)nc2C(F)F)n1 [Example 96, 1-(5-Cyclopropylpyridin-3-yl)-3-(difluoromethyl)-N-(6-(1-isopropyl-1H-imidazol-5-yl)pyridin-2-yl)-1H-pyrazole-4-carboxamide] |
| – | ≤ 1000 | ≤ 100 | COc1nn(CC(F)(F)F)cc1C(=O)Nc1cccc(-c2nncn2[C@@H](C)C(C)C)n1 [Example 104, (S)-3-Methoxy-N-(6-(4-(3-methylbutan-2-yl)-4H-1,2,4-triazol-3-yl)pyridin-2-yl)-1-(2,2,2-trifluoroethyl)-1H-pyrazole-4-carboxamide] |
| – | ≤ 1000 | ≤ 100 | COc1nn(-c2cc(C#N)ccn2)cc1C(=O)Nc1cccc(-c2nncn2C(C)C)n1 [Example 65, 1-(4-Cyanopyridin-2-yl)-N-(6-(4-isopropyl-4H-1,2,4-triazol-3-yl)pyridin-2-yl)-3-methoxy-1H-pyrazole-4-carboxamide] |
| – | ≤ 1000 | ≤ 100 | CC(C)n1cncc1-c1cccc(NC(=O)c2cn(-c3cncc(O)c3)nc2C(F)F)n1 [Example 99, 3-(Difluoromethyl)-1-(5-hydroxypyridin-3-yl)-N-(6-(1-isopropyl-1H-imidazol-5-yl)pyridin-2-yl)-1H-pyrazole-4-carboxamide] |
| – | ≤ 1000 | ≤ 100 | COc1cncc(-n2cc(C(=O)Nc3cccc(-c4nncn4C(C)C)n3)c(OC)n2)c1 [Example 71, N-(6-(4-Isopropyl-4H-1,2,4-triazol-3-yl)pyridin-2-yl)-3-methoxy-1-(5-methoxypyridin-3-yl)-1H-pyrazole-4-carboxamide] |
| – | ≤ 1000 | ≤ 100 | COc1nn(C)cc1C(=O)Nc1cccc(-c2nncn2[C@@H]2CCOC2)n1 (single isomer, unassigned) [Example 109] |
